Results on six compounds are retold here after ChEMBL document CHEMBL1121775, “Synthesis and antimalarial effects of N2-aryl-N4-[(dialkylamino)alkyl]- and N4-aryl-N2-[(dialkylamino)alkyl]-2,4-quinazolinediamines” (J Med Chem, 1981).

SMILES strings stand for the structures. Where “and” joins values, the source holds several entries; their conditions need not be identical. Equal values may be shown once.

Data set [1] relates to Plasmodium berghei. As to the kind of experiment: Antimalarial activity against trophozoite-induced Plasmodium berghei in mice (Mus musculus) at 160 mg/kg subcutaneous dose. Type of data set: functional. To be noted: 160 mg/kg.
Data set [2] deals with Plasmodium berghei. The data set can be described thus: Antimalarial activity against trophozoite-induced Plasmodium berghei in mice (Mus musculus). Type of data set: functional.
Data set [3] has as its system Mus musculus. The data set can be described thus: Number of mice cured at a subcutaneous dose of 160 mg/kg. Type of data set: functional.
Data set [4] relates to Mus musculus. The data set can be described thus: (§1) The ratio of SD90 of the quinine hydrochloride, to the SD90 of the test substance for the Dose of 8.5 mg/kg. It is filed as functional.
The nature of data set [5]: as §1. Type of data set: functional.
Data set [6] relates to Plasmodium berghei. As to the kind of experiment: Antimalarial effect against trophozoite-induced Plasmodium berghei in mice (Mus musculus) after 20 mg/kg subcutaneous dose. Type of data set: functional.
In data set [7] the test system is Mus musculus. As to the kind of experiment: Antimalarial effect against trophozoite-induced Plasmodium berghei in mice (Mus musculus) at dosage of 80 mg/kg after subcutaneous administration. Type of data set: functional.
The subject of data set [8] is Plasmodium berghei. As to the kind of experiment: Antimalarial effect against trophozoite-induced Plasmodium berghei in mice (Mus musculus) after 40 mg/kg subcutaneous dose. It is filed as functional.
In data set [9] the test system is Mus musculus. The data set can be described thus: Antimalarial effect against trophozoite-induced Plasmodium berghei in mice (Mus musculus) at dosage of 80 mg/kg after subcutaneous administration; No. of mice (Mus musculus) surviving after 60 days 1. It is filed as functional.
The subject of data set [10] is Mus musculus. The data set can be described thus: Antimalarial effect against trophozoite induced Plasmodium berghei in mice (Mus musculus) at dosage of 160 mg/kg after subcutaneous administration; No. of mice (Mus musculus) surviving after 60 days 1. It is filed as functional.
Data set [11] has as its system Mus musculus. The data set can be described thus: Number of mice cured at a dose of 320 mg/kg sc. It is filed as functional. To be noted: route subcutaneous.
Data set [12] deals with Plasmodium berghei. As to the kind of experiment: Antimalarial effect against trophozoite-induced Plasmodium berghei in mice (Mus musculus) at 320 mg/kg subcutaneous dose. Type of data set: functional.
Data set [13] has as its system Mus musculus. The data set can be described thus: Number of toxic deaths at dose of 640 mg/kg. The arrangement: dose 640 mg/kg. To be noted: in vivo. It is filed as toxicity, organism-based.
Data set [14] relates to Plasmodium berghei. The data set can be described thus: (§2) Antimalarial effect against trophozoite-induced Plasmodium berghei in mice (Mus musculus) at 640 mg/kg subcutaneous dose. It is filed as functional.
Data set [15] relates to Plasmodium berghei. The data set can be described thus: Antimalarial effect against trophozoite-induced Plasmodium berghei in mice (Mus musculus) at 160 mg/kg subcutaneous dose. Type of data set: functional.
The subject of data set [16] is Plasmodium berghei. As to the kind of experiment: Antimalarial effect against trophozoite-induced Plasmodium berghei in mice (Mus musculus) at 80 mg/kg subcutaneous dose. It is filed as functional.
For data set [17], the system named is Plasmodium berghei. The data set is described as §2. Type of data set: functional. This is another data set of the same source.
Data set [18] relates to Mus musculus. As to the kind of experiment: Number of toxic deaths at doae of 320 mg/kg. The note with it: in vivo. On the set-up: dose 320 mg/kg. It is filed as toxicity, organism-based.
In data set [19] the test system is Mus musculus. The data set can be described thus: Number of mice cured at a dose of 40 mg/kg sc. Type of data set: functional. To be noted: route subcutaneous.
Data set [20] is described as follows: The ratio of SD90 of the quinine hydrochloride, to the SD90 of the test substance for the Dose of 0.28 mg/kg. Type of data set: functional.
Data set [21] concerns Mus musculus. The data set can be described thus: Number of mice cured at a dose of 640 mg/kg sc. Type of data set: functional. To be noted: route subcutaneous.
Data set [22] deals with Mus musculus. The data set can be described thus: Number of mice cured at a subcutaneous dose of 320 mg/kg. It is filed as functional.
The test system of data set [23] is Mus musculus. As to the kind of experiment: Number of mice cured at a dose of 80 mg/kg sc. To be noted: route subcutaneous. It is filed as functional.
The subject of data set [24] is Mus musculus. The data set can be described thus: Antimalarial effect against trophozoite induced Plasmodium berghei in mice (Mus musculus) at dosage of 40 mg/kg after subcutaneous administration. It is filed as functional.
The nature of data set [25]: The ratio of SD90 of the quinine hydrochloride, to the SD90 of the test substance for the Dose of 25 mg/kg. It is filed as functional.
For data set [26], the species on record is Mus musculus. The data set can be described thus: Antimalarial effect against trophozoite-induced Plasmodium berghei in mice (Mus musculus). Type of data set: functional.
Data set [27] is described as follows: The ratio of SD90 of the quinine hydrochloride, to the SD90 of the test substance for the Dose of >30 mg/kg. It is filed as functional.
In data set [28] the test system is Mus musculus. The data set can be described thus: (§3) Number of toxic deaths at a dose of 640 mg/kg. The arrangement: dose 640 mg/kg. Type of data set: toxicity, organism-based. To be noted: in vivo.
The test system of data set [29] is Mus musculus. The description is as §3. It is filed as functional.
Data set [30] is described as follows: The ratio of SD90 of the quinine hydrochloride, to the SD90 of the test substance for the Dose of 50 mg/kg. It is filed as functional.

Regarding `CCN(CC)C1CCC(Nc2nc(Nc3ccc(Cl)c(Cl)c3)nc3ccccc23)CC1` (stereo unspecified), the MST is 13.9 days and 13.7 days in the data set with Plasmodium berghei [1]; 0.9 days in the data set with Plasmodium berghei [6]; 10.4 days in the data set with Mus musculus [7]; 10.1 days and 10.5 days in the data set on Plasmodium berghei [8] (40 mg/kg); 10.4 days in the data set with Mus musculus [9]; 13.7 days in the data set with Mus musculus [10]. The compound further gave an MST in the data set on Plasmodium berghei [12] of 22.9 days. The SD90 with Plasmodium berghei [2] was determined as 8.5 mg/kg/day. The compound also registered a No. of survivals in the data set on Mus musculus [3] of 1. In addition, the Ratio (with Mus musculus [4]; in [5]) was 8.8 throughout. In addition, in the data set on Mus musculus [11], the No. of cured is 5.
Consider `CCN(CC)CCCC(C)Nc1nc(Nc2ccc([N+](=O)[O-])cc2)c2ccccc2n1` (stereo unspecified), for which the “No. of toxic deaths” value in the data set with Mus musculus [13] is reported as 5; in the data set on Mus musculus [18] it was 2. Moreover, the MST is 5 days with Plasmodium berghei [14]; 0 days in the data set on Plasmodium berghei [6]; 2.6 days and 3.2 days in the data set with Plasmodium berghei [15] (160 mg/kg); 1.4 days with Plasmodium berghei [16]; 4.3 days with Plasmodium berghei [17]; 0.8 days and 0.6 days in the data set with Plasmodium berghei [8] (40 mg/kg). The compound further showed an MST with Plasmodium berghei [12] of 5 days.
In turn, `CCc1nc(N)nc(N)c1-c1ccc(Cl)cc1` [PYRIMETHAMINE] displayed an SD90 in the data set on Plasmodium berghei [2] of 0.28 mg/kg/day. Further, the No. of survivals in the data set on Mus musculus [3] is 5; in the data set on Mus musculus [19] it was 1; in the data set on Mus musculus [21] (640 mg/kg) it was 1 and 2; in the data set on Mus musculus [22] (320 mg/kg) it was 2 and 3; in the data set on Mus musculus [23] it was 3. The MST in the data set with Plasmodium berghei [6] amounted to 7.7 days. Also, in [20], the Ratio turned out to be 270.
For the compound `OC1CCCN(CCCNc2nc(Nc3ccc(I)cc3)nc3ccccc23)C1` (stereo unspecified), the MST in the data set with Mus musculus [24] is 0.8 days; in the data set with Plasmodium berghei [14], 20.1 days; in the data set on Plasmodium berghei [6], 1 days; with Plasmodium berghei [15] (160 mg/kg), 8 days and 5.8 days; with Plasmodium berghei [16], 4 days; in the data set on Plasmodium berghei [17] it was 24.1 days. The MST in the data set on Plasmodium berghei [8] is 1.2 days; in the data set with Plasmodium berghei [12] it was 13.1 days. Besides, the No. of survivals is 2 in the data set with Mus musculus [21] and 1 with Mus musculus [22]. Besides, the Ratio in [25] turned out to be 3. In the data set listed under Mus musculus [26], this compound registered an SD90 of 25 mg/kg/day.
On to `CCOc1ccc(Nc2nc(NCCN(CC)CC)c3ccc(Cl)cc3n2)cc1CN(CC)CC`, for which the SD90 in the data set with Plasmodium berghei [2] is more than 30 mg/kg/day. For the same compound, in data set [27], the Ratio was less than 2.5. In addition, the MST in the data set on Plasmodium berghei [15] was 0.8 days; with Plasmodium berghei [8], 0.6 days. Besides, in the data set on Mus musculus [28], the “No. of toxic deaths” value was determined as 5.
In the data set with Plasmodium berghei [2], `CCN(CC)CCNc1nc(Nc2ccc(N3CCN(C)CC3)cc2)nc2ccccc12` gave an SD90 of 50 mg/kg/day. For the same compound, the “No. of toxic deaths” value with Mus musculus [29] and in the data set with Mus musculus [28] was 3 throughout. In addition, the MST in the data set on Plasmodium berghei [14] (640 mg/kg) is 6.8 days and 6.3 days; in the data set with Plasmodium berghei [6] it was 0.2 days; in the data set on Plasmodium berghei [15] (160 mg/kg) it was 4.8 days and 4.2 days; in the data set on Plasmodium berghei [16] it was 3.4 days; with Plasmodium berghei [8] (40 mg/kg), 1 days and 0.8 days; with Plasmodium berghei [12] it was 5.2 days. For the same compound, the Ratio in [30] is on record as 1.5.
